Results on three compounds are retold here after patent US20180050012A1, “Method for Inhibiting Growth of Ovarian Cancer Cells” (NEW BELLUS ENTERPRISES CO., LTD., priority 2016, published 2018).

In one data set the test system is LC3BII. Put plainly: Autophagy: immunohistochemical staining and western blot of LC3BII in ES-2 cells. Type of data set: cell-based, human. The protocol: (§1) Western blot is carried out in a standard procedure. The cells were washed twice with PBS and then a cell lysis solution was added. Cell debris was removed by centrifugation to collect protein degradation products. The protein concentrate was quantified by BCA assay kit (Pierce, Thermo Scientific, USA). Each sample was taken an equal amount of protein degradation products to 10% SDS-PAGE electrophoresis then transferred to a PVDF membrane, followed by the addition of anti-autophagy-related genes (Atg-7, Atg-5, and LC3BII) primary antibodies, and an anti-β-actin antibody as a control group. After the target proteins and the primary antibodies reacted overnight, the secondary antibody conjugated to HRP was added. Finally, the signals of the target proteins were determined by a luminescence-based imaging system (UVP, LLC, USA).
Presumably because cisplatin treatment initiated autophagy that enhanced viability. […] After 4-acetyl-antroquinonol B treatment, LC3BII was detected by immunohistochemical staining and western blot, showing that 4-acetyl-antroquinonol B did inhibit the LC3BII expression on autophagosomes (FIG. 2A). Cell autophagy would protect cancer cells from apoptosis caused by chemotherapies. Hydroxychloroquine was a widely used antiparasitic drug. […] Hydroxychloroquine increased the pH inside lysosomes thus made the lysosomes difficult to fuse with mature autophagosomes. The Inhibitory effect on autophagy could also solve the problem of cell autophagy resistance due to chemotherapies in cancer cells.
A general note: Immunoblotting shows a protein as a band on a membrane.

On the set-up of data set [1]: species or system NOD-SCID mice. The note with it: mouse, in vivo. How it is done: In this study, tumors were induced by malignant ovarian cancer cell line ES-2 in NOD-SCID mice to establish malignant ovarian cancer animal models. The efficacy of oral and intraperitoneal administration of 4-acetyl-antroquinonol B for ovarian cancer was evaluated. In the ovarian cancer animal models, the malignant ovarian cancer cell line ES-2 was implanted subcutaneously to simulate the symptoms of malignant ovarian cancer. And the same time, the animals were fed with different concentrations of 4-acetyl-antroquinonol B every day for six weeks. The animals were sacrificed each week in the six weeks, respectively. […] Importantly, as for safety of 4-acetyl-antroquinonol B, the body weight changes of each group of mice were monitored weekly. […]
The ES-2 ovarian cancer cells in logarithmic phase were mixed with serum suspension and 0.1 ml (2×10^6 cells) was inoculated into hind legs of NOD-SCID immunodeficient mice to form tumors. […] Changes in tumor volume and body weight were monitored and recorded every week. […] The longest diameter (a) and the shortest diameter (b) of the tumor on mice were measured. The tumor size=(a*b2)/2, and the tumor growth curve was calculated.

Data set [2] relates to ES-2 ovarian cancer cell line tumors. Put plainly: ES-2 xenograft ovarian cancer animal model, tumor growth. Format: in vivo, NOD-SCID mice. To be noted: for cell growth of ovarian cancer cell line ES-2 (tumor growth status), single agent: administration of either agent alone. How it is done: In this study, tumors were induced by malignant ovarian cancer cell line ES-2 in NOD-SCID mice to establish malignant ovarian cancer animal models. The efficacy of oral and intraperitoneal administration of 4-acetyl-antroquinonol B for ovarian cancer was evaluated. In the ovarian cancer animal models, the malignant ovarian cancer cell line ES-2 was implanted subcutaneously to simulate the symptoms of malignant ovarian cancer. And the same time, the animals were fed with different concentrations of 4-acetyl-antroquinonol B every day for six weeks. The animals were sacrificed each week in the six weeks, respectively. […] In addition, different doses of 4-acetyl-antroquinonol B were administered orally (5 mg/kg and 10 mg/kg), and 1 dose (3 mg/kg) of cisplatin was injected intravenously each week (three doses total) when the tumor size was about 70-250 mm^3. […] Importantly, as for safety of 4-acetyl-antroquinonol B, the body weight changes of each group of mice were monitored weekly. […] Therefore, 4-acetyl-antroquinonol B was a potential adjuvant therapy agent in the treatment of ovarian cancer.
Immunodeficient mice (NOD/SCID mice, about 4-6 weeks old) were purchased from BioLASCO Taiwan Co., Ltd. The test was initiated after a week of domestication.
The selected tumor cells were ES2 malignant ovarian cancer cells. ES-2 cell line was derived from a ovarian cancer cell line which was highly resistant to chemotherapy drugs (e.g. cisplatin) and had poor prognosis. It was an anchorage-dependent cell line with strong transfer capacity. The culture medium was DMEM containing 10% fetal bovine serum (FBS), 1% non-essential amino acids (NEAA), and 1% antibiotics. The cells were incubated in a incubator at 37° C., 5% CO2 and subcultured once every 3 to 4 days.
The cells were treated with 0.05% trypsin-EDTA for 3 to 5 minutes to be suspended. The serum-containing medium was added to neutralize trypsin. The mixture was then centrifuged at 1000 rpm at 20° C. for 5 min. The supernatant was removed and the cell pellet was gently dispersed. The cells were resuspended in a suitable volume of culture medium. After mixing evenly, a little cell fluid was taken and cells were counted with a cytometer. The cells were diluted to a concentration of 10^7 cells per milliliter, and approximately 0.15 ml was dispensed into a 1.5 ml small centrifuge tube.
A solution of 4-acetyl-antroquinonol B was prepared in DMSO (250 mg/ml, DMSO was used as the solvent). After 4-acetyl-antroquinonol B was completely dissolved, the solution was dispensed as stock solution and stored at 4° C. Sterile normal saline solution was added to the stock to make a 500-fold dilution. The mixture was mixed evenly and then injected intraperitoneally. Cisplatin, a current clinical standard chemotherapy drug, was also an injection with a concentration of 50 mg/ml or 5 mg/ml, and both of which were injected intravenously without further dilution.
The day before tumor cells injection, zoletil 50 (10-fold dilution) and rompun 2% were mixed (1:1), and 0.25 ml of the mixture was injected intraperitoneally to each mouse for anesthesia. The mice were exposed to radiation to suppress their immunity after they were asleep. The irradiation dose was 0.75 Gy.
Mice were anesthetized with 2.5% isoflurane. The hair of injection site was shaved. The injection site was disinfected with 75% alcohol and povidone-iodine before injection. ES2 tumor cells were injected via 29G insulin needle. […]

Another data set deals with Atg-5. Put plainly: Western blot of Atg-5 in treated cells. Format: cell-based, human. To be noted: FIG. 2C. The protocol: as §1
Another data set deals with AKT/mTOR/p70S6K. Put plainly: Western blot of signaling pathway molecules in ES2 cells. Format: cell-based, human. To be noted: treatment for 0, 3, 6, and 12 hours, FIG. 3. How it is done: as §1
The effect of 4-acetyl-arbutin-B on cell proliferation and autophagy of ovarian cancer cell line ES2 was observed, and the expression of autophagy-associated protein LC3BII and signaling pathway molecules AKT/mTOR/p70S6K were detected by western blot.

In data set [3] the test system is ES-2 ovarian cancer cell line. Briefly: Cytotoxicity test (SRB assay, cell viability). Type of data set: cell-based, human. The text has this: (§2) The ovarian cancer cell lines used in this study included: ES-2, OV-2008, and SKOV-3 obtained from American Type Culture Collection (ATCC). ES-2 was a clear cell carcinoma cell line with high resistance to platinum chemotherapies. Compared with other types of cancer, the clear cell carcinoma was found having poor prognosis in previous studies. SKOV-3 and OV-2008 were more benign cell lines compared to ES-2. Cell culture medium was McCoy5A culture medium (GIbco, 16600-082) supplemented with 1% antibiotic (Gibco, 15140) and 10% fetal bovine serum (FBS, Sigma, F7524). The cells were incubated in a standard incubator (Shel Lab, Sheldon Manufacturing, USA) at 37° C., 5% CO2.
(§3) All the tested cells were incubated in a medium containing 10% fetal bovine serum. When the cells grew to about eighty percent full, the old culture medium was drained and the cells were washed with PBS (phosphate buffered saline) buffer solution. Then, 10 ml of serum-free culture medium was added. Different drugs were added depending on experimental purposes. The reaction was carried out in a 37° C. constant temperature incubator.
(§4) The ovarian cancer cell lines ES-2, OV-2008, and SKOV-3 were placed in a 96-well culture plate (2000 cells/per well) and incubated overnight in 100 μl of complete DMEM. 50 μl of complete DMEM equivalent sample containing 4-acetyl-antroquinonol B (0.5-50 μM) was added to the different wells of the culture plate. In addition, only 100 μl of complete DMEM was added to the control group. After 2 days of culture, the number of cells in each well was determined by sulforhodamine B (a protein-binding dye). Briefly, the cells were fixed in 10% trichloroacetic acid and stained with 0.4% sulforhodamine B. After stained for 20 minutes, the cells were washed with 1% acetic acid. Thereafter, the cell-bound sulforhodamine B was dissolved in 10 mM Tris base. The absorbance (optical density) was determined at 562 nm by a microtiter plate reader.

The test system of data set [4] is OV-2008 ovarian cancer cell line. Briefly: Cytotoxicity test (SRB assay, cell viability). To be noted: 0.5-50 μM, 2 days, FIG. 1B. Format: cell-based, human.
Excerpt: as §2, §3, §4

Data set [5] concerns SKOV-3 ovarian cancer cell line. Put plainly: Cytotoxicity test (SRB assay, cell viability). Format: cell-based, human.
Excerpt: as §2, §3, §4
(In general: Sulforhodamine B stains cellular protein and so reports cell mass.)

The test system of a further data set is ES-2 cell line. Briefly: Clonogenicity analysis. Type of data set: cell-based, human. To be noted: FIG. 2D. How it is done:
In a 6-well plate was seeded 600 cells per well. The culture medium was McCoy5A supplemented with 10% fetal bovine serum.

A further data set has as its system Atg-7. Put plainly: Western blot of Atg-7 in treated cells. The note with it: FIG. 2C. Format: cell-based, human. How it is done: as §1
The test system of the next data set is cell autophagy. To be noted: recent phase II clinical study; cited from earlier work.

For the compound `N.N.[Cl][Pt][Cl]` [cisplatin, reference compound], the “autophagy phenomenon after cisplatin treatment” value in the data set with LC3BII (ES-2 cell line) is listed as “more significant”. For the same compound, in data set [1], the “body weight after sustained decrease from approximately 26 g” value is given as “about 21 g”. Besides, the “cell growth of ovarian cancer cell line ES-2 (tumor growth status), single agent” value in data set [2] was “effectively inhibited”.
Consider `COC1=C(OC)[C@H](OC(C)=O)[C@H](C/C=C(\C)CC/C=C(\C)C[C@H]2C[C@H](C)C(=O)O2)[C@@H](C)C1=O` [4-acetyl-antroquinonol B], for which, in the data set on LC3BII (ES-2 cell line), the cell autophagy result is “significantly inhibited”. Moreover, the “autophagosome maturation compared with hydroxychloroquine” value with LC3BII (ES-2 pretreated with 5 μM cisplatin, FIG. 2B) is reported as “inhibited more than in cells treated with hydroxychloroquine”. Besides, the “LC3BII expression on autophagosomes” value in the data set on LC3BII (immunohistochemical staining and western blot, FIG. 2A) is “did inhibit”. Further, the “safety in the living body” value in [1] is given as “extremely high”. Besides, the “expression of downstream Atg-5” value in the data set with Atg-5 is “inhibited”. Besides, the “expressions of signaling pathway key molecules AKT/mTOR/p70S6K” value with AKT/mTOR/p70S6K was “significantly reduced”. Besides, the “growth of ES2 cells” value in data set [3] (20 uM, time-dependent effect, P<0.05) is “significantly inhibited”. Further, the “response to 4-acetyl-antroquinonol B in cell viability test (cytotoxicity)” value was “most pronounced response” in data set [3] (ES-2, 0.5-50 μM, 2 days, FIG. 1B) and “responsive” in data set [4]. Also, the “cell viability compared with hydroxychloroquine” value in [3] (ES-2 pretreated with 5 μM cisplatin, same concentration) is listed as “significantly lower than that in cells treated with hydroxychloroquine”. For the same compound, the “inhibitory effect on ovarian cancer cell line” value in data set [5] is given as “high inhibitory effect”. Further, the “cell colony formation efficiency” value in the data set with ES-2 cell line is “decreased”. Further, in the data set with Atg-7, the “expression of Atg-7” value is reported as “reduced”. Also, the “cell growth of ovarian cancer cell line ES-2 (tumor growth status), single agent” value in data set [2] is “effectively inhibited”. For the same compound, in data set [2] (oral 5 mg/kg and 10 mg/kg), the “inhibitory effect on tumor growth, administered alone” value is reported as “dose-dependent inhibitory effect”. For the same compound, the “tumor severity versus control group” value in [2] (oral or intraperitoneal injection, daily for six weeks) was “significantly lower”. Besides, the “combined inhibitory effect on ovarian cancer with cisplatin and FOLFOX” value in [2] (ovarian cancer animal model) is listed as “synergistic inhibitory effect”.
On to `CCN(CCO)CCCC(C)Nc1ccnc2cc(Cl)ccc12` (stereo not drawn) [hydroxychloroquine], for which the “inhibition of cell autophagy” value with cell autophagy was “could successfully inhibit cell autophagy”.
